Target: Cereblon (CRBN) (Homo sapiens, UniProt Q96SW2)
Test: biochemical
Format: binding

Sequence of Cereblon (CRBN) (Q16531 2-1140): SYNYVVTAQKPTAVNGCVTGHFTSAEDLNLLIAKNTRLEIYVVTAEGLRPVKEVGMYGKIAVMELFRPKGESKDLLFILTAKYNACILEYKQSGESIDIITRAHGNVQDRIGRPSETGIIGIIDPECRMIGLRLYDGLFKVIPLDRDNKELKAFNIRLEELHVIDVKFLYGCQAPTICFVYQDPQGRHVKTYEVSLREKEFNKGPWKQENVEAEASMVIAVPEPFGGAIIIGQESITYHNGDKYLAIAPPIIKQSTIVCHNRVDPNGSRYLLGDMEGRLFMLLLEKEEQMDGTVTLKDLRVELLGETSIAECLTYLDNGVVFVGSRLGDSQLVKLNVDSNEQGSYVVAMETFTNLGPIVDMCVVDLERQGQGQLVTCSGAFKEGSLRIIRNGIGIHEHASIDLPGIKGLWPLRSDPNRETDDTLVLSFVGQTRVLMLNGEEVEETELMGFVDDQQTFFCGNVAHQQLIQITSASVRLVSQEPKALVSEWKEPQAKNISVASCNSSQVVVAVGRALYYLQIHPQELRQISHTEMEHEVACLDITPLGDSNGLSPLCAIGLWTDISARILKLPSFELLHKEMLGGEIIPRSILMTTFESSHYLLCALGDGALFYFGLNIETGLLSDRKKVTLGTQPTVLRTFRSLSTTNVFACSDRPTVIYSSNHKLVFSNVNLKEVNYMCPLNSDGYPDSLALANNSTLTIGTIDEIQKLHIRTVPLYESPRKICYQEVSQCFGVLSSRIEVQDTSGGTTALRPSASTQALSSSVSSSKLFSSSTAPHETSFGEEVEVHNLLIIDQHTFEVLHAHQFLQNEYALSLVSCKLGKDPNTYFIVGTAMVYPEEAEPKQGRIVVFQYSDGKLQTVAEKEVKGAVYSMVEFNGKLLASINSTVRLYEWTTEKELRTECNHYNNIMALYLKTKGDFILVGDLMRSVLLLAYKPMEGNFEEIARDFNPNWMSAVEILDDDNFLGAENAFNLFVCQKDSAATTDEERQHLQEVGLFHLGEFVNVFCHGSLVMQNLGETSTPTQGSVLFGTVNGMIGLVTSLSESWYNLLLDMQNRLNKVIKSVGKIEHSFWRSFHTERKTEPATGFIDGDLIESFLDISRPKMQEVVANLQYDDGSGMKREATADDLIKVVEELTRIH
Sequence of Cereblon (CRBN) (Q96SW2 whole entry): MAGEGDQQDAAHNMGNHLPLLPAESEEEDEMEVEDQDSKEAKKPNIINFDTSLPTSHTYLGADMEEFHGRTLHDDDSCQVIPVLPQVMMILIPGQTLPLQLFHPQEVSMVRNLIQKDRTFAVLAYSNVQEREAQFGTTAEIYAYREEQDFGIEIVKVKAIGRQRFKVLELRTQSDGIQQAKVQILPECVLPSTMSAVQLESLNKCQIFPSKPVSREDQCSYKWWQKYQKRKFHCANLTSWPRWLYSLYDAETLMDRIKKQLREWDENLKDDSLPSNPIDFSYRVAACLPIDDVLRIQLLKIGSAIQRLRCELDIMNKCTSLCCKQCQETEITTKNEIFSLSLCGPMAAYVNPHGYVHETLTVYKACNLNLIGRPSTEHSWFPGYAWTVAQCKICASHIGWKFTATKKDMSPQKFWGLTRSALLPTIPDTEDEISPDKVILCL

SMILES	IC50 [µM]
CO[C@H]1/C=C/O[C@@]2(C)Oc3c(C)c(O)c4c(c3C2=O)C(=O)C=C(NC(=O)/C(C)=C\C=C\[C@H](C)[C@H](O)[C@@H](C)[C@@H](O)[C@@H](C)[C@H](OC(C)=O)[C@@H]1C)C4=O [Rifamycin S]	3.09
CO[C@H]1/C=C/O[C@@]2(C)Oc3c(C)c(O)c4c(c3C2=O)C2=NC3(CCN(CC(C)C)CC3)NC2=C(NC(=O)/C(C)=C\C=C\[C@H](C)[C@H](O)[C@@H](C)[C@@H](O)[C@@H](C)[C@H](OC(C)=O)[C@@H]1C)C4=O [Rifabutin]	15.8
